Laboratory results from patent publication US11352396B2, “Antimicrobial peptides and methods of using same” (Zoetis Services LLC, priority 2017, dated 2022).

What was measured:
S. aureus ATCC 29213 = format: cell-based; set-up: key to SA 29213: MIC in μM (lowest conc. with no visible growth); details: S. aureus 29213, Table 6
Method in brief: (§1)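 Broth microdilution followed CLSI VET01-S2, with peptides serially diluted to in-assay concentrations of 50 μM to 0.05 μM. A 0.5 McFarland inoculum diluted 1:250 in Mueller-Hinton Broth was incubated with peptide for 18-20 hours. MIC was read visually as the first well without visible growth.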

E. coli ATCC 25922 = format: cell-based; details: E. coli 25922, Table 6
Method in brief: as §1

[1] = system: MSSP (Methicillin-Susceptible Staphylococcus pseudintermedius); assay: MIC against selected strains of MSSP; format: cell-based; set-up: MIC MSSP 49051 / MIC MSSP 81923 / MIC MSSP 84250 / Effect on MSSP 86000 / Effect on MSSP 72036 / Effect on MSSP 78032: unit not given beside the values; Effect on MSSP 71990 / Effect on MSSP 86001 / Effect on MSSP 72191 / Effect on MSSP 76986 / Effect on MSSP 77378 / Effect on MSSP 81923 / Effect on MSSP 84250 / Effect on MSSP 84658: unit: µM; details: for SP 49051: S. pseudintermedius 49051, Table 6; for Effect on MSSP 71990: strain 71990, Table 5; for Effect on MSSP 72036: strain 72036, Table 5; for Effect on MSSP 72191: strain 72191, Table 5; for Effect on MSSP 76986: strain 76986, Table 5; for Effect on MSSP 77378: strain 77378, Table 5; for Effect on MSSP 78032: strain 78032, Table 5; for Effect on MSSP 81923: strain 81923, Table 5; for Effect on MSSP 84250: strain 84250, Table 5; for Effect on MSSP 84658: strain 84658, Table 5; for Effect on MSSP 86000: strain 86000, Table 5; for Effect on MSSP 86001: strain 86001, Table 5
Method in brief: (§2)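 Broth microdilution MIC following CLSI VET01-S2: peptides titrated 50 μM to 0.05 μM in assay, inoculum a 0.5 McFarland suspension diluted 1:250 in Mueller-Hinton broth. Incubated overnight (18–20 h); MIC taken visually as lowest concentration without visible growth.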

[2] = system: MRSP (Methicillin-Resistant Staphylococcus pseudintermedius); assay: MIC against selected strains of MRSP; format: cell-based; set-up: key to MIC MRSP 72192 / MIC MRSP 76923 / MR 71994 / Mr 88493 / MR 72035 / MR 72192 / MR 76923 / MR 79882 / MR 80279 / MR 81926 / MR 86002 / MR 87665: MIC in μM (visual, first well with no growth); details: for MR 71994: MRSP strain 71994, Table 6; for MR 72035: MRSP strain 72035, Table 6; for MR 72192: MRSP strain 72192, Table 6; for MR 76923: MRSP strain 76923, Table 6; for MR 79882: MRSP strain 79882, Table 6; for MR 80279: MRSP strain 80279, Table 6; for MR 81926: MRSP strain 81926, Table 6; for MR 86002: MRSP strain 86002, Table 6; for MR 87665: MRSP strain 87665, Table 6; for Mr 88493: MRSP strain 88493, Table 6
Method in brief: as §2

[3] = system: Canine-derived epithelial keratinocyte (CPEK) cells; format: cell-based
Method in brief: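 CPEK cells were dosed with peptides at 50 μM to 0.05 μM and incubated overnight at 37 °C, 5% CO2. Viability was read by CellTiter-Glo luminescence. Percent effect was normalised to 0.1% Triton X-100 (high) and phosphate buffer alone (zero).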

cRBC = format: cell-based, canine
Method in brief: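 Washed, plasma-free red cells were incubated with peptide titrated from 50 µM to 0.05 µM for 1 h at 37 °C. Hemolysis was read as OD at 405 nm, scaled between phosphate buffer alone (0%) and 1% Triton X-100 (100%).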

Substance	SA 29213 (S. aureus ATCC 29213)	EC 25922 (E. coli ATCC 25922)	SP 49051 [1]	Effect on MSSP 71990 [1]	Effect on MSSP 72036 [1]	Effect on MSSP 72191 [1]	Effect on MSSP 76986 [1]	Effect on MSSP 77378 [1]	Effect on MSSP 78032 [1]	Effect on MSSP 81923 [1]	Effect on MSSP 84250 [1]	Effect on MSSP 84658 [1]	Effect on MSSP 86000 [1]	Effect on MSSP 86001 [1]	MR 71994 [2]	MR 72035 [2]	MR 72192 [2]	MR 76923 [2]	MR 79882 [2]	MR 80279 [2]	other results
107 (KWCFRVCWRGICYRRCRD; Artificial Antimicrobial peptide) [compound 107]	3.1	3.1 µM	1.6	1.6	1.6	1.6	1.6	1.6	1.6	1.6	1.6	1.6	1.6	1.6	1.6	3.1	1.6	1.6	0.8	1.6	MR 81926 [2]: 1.6; MR 86002 [2]: 1.6; MR 87665 [2]: 1.6; Mr 88493 [2]: 1.6; CPEK (50 μM) [3]: 26.3; cRBC (50 μM) (cRBC): 101.8
108 (KWCFRVCYGGICYRRCRD; Artificial Antimicrobial peptide) [compound 108]	12.5	0.8 µM	3.1	3.1	3.1	3.1	3.1	3.1	3.1	3.1	3.1	3.1	3.1	3.1	3.1	3.1	3.1	3.1	3.1	3.1	MR 81926 [2]: 3.1; MR 86002 [2]: 3.1; MR 87665 [2]: 3.1; Mr 88493 [2]: 3.1; CPEK (50 μM) [3]: 9.6; cRBC (50 μM) (cRBC): 27.7
109 (KWCFRVCYRRICYRRCRD; Artificial Antimicrobial peptide) [compound 109]	3.1	1.6 µM	1.6	1.6	1.6	1.6	1.6	1.6	1.6	1.6	1.6	1.6	1.6	1.6	1.6	1.6	1.6	1.6	0.8	1.6	MR 81926 [2]: 1.6; MR 86002 [2]: 1.6; MR 87665 [2]: 1.6; Mr 88493 [2]: 1.6; CPEK (50 μM) [3]: 19.2; cRBC (50 μM) (cRBC): 99.8
110 (KWCFRVCYRGYCYRRCRD; Artificial Antimicrobial peptide) [compound 110]	6.2	1.6 µM	3.1	1.6	3.1	3.1	1.6	1.6	1.6	3.1	3.1	3.1	3.1	3.1	3.1	3.1	3.1	3.1	1.6	1.6	MR 81926 [2]: 3.1; MR 86002 [2]: 3.1; MR 87665 [2]: 3.1; Mr 88493 [2]: 3.1; CPEK (50 μM) [3]: 10.7; cRBC (50 μM) (cRBC): 46.3
112 (KWCFRVCYRGICYRRCKD; Artificial Antimicrobial peptide) [compound 112]	3.1	1.6 µM	1.6	1.6	1.6	1.6	1.6	0.8	1.6	1.6	1.6	1.6	1.6	1.6	1.6	1.6	1.6	1.6	0.8	0.8	MR 81926 [2]: 1.6; MR 86002 [2]: 1.6; MR 87665 [2]: 1.6; Mr 88493 [2]: 1.6; CPEK (50 μM) [3]: 14.2; cRBC (50 μM) (cRBC): 61.0
113 (KWCFRVCYRGICYRRCAD; Artificial Antimicrobial peptide) [compound 113]	6.2	1.6 µM	1.6	1.6	1.6	1.6	1.6	1.6	1.6	1.6	1.6	1.6	1.6	1.6	1.6	1.6	1.6	1.6	1.6	1.6	MR 81926 [2]: 1.6; MR 86002 [2]: 1.6; MR 87665 [2]: 1.6; Mr 88493 [2]: 1.6; CPEK (50 μM) [3]: 15.7; cRBC (50 μM) (cRBC): 86.3
114 (KWCFRVCYRGICYRRCRR; Artificial Antimicrobial peptide) [compound 114]	6.2	1.6 µM	3.1	1.6	3.1	3.1	1.6	1.6	3.1	3.1	3.1	3.1	3.1	1.6	3.1	3.1	3.1	3.1	1.6	1.6	MR 81926 [2]: 3.1; MR 86002 [2]: 3.1; MR 87665 [2]: 3.1; Mr 88493 [2]: 3.1; CPEK (50 μM) [3]: 11.9; cRBC (50 μM) (cRBC): 97.9
115 (GWCFRVCYRGICYRRCND; Artificial Antimicrobial peptide) [compound 115]	3.1	0.8 µM	1.6	1.6	1.6	1.6	1.6	0.8	1.6	1.6	1.6	1.6	1.6	1.6	1.6	1.6	1.6	1.6	0.8	1.6	MR 81926 [2]: 1.6; MR 86002 [2]: 1.6; MR 87665 [2]: 1.6; Mr 88493 [2]: 1.6; CPEK (50 μM) [3]: 5.1; cRBC (50 μM) (cRBC): 94.6
